From patent US20240317762A1, “PHTHALAZINONE-BASED PARP-1 INHIBITORS” (Oregon Health & Science University, priority 2021, published 2024)
Values joined by “and” are separate entries in the source; they are usually repeats but may differ in a detail not shown here. Equal entries are not always repeated.

What was measured:
D770A PARP-1 = D770A PARP-1 (Homo sapiens, UniProt P09874, D770A); test: catalytic activity of PARP-1 mutant expressed in HEK 293 cells, D770A; format: biochemical; details: 3 μM AZ0108
HEK 293T cells [1] = test: neutral comet assay; format: cell-based, human; details: 1 μM overnight, compared to bleomycin
Excerpt: Cells were washed with 1×PBS, trypsinized, resuspended in a 1000,000 cells/ml 1×PBS solution, and mixed with molten agarose 1:2. The agarose mixture was placed onto CometSlides and the comet assay was completed following the manufacturer instructions (Trevigen, 4250-050-K). DNA was stained using SYBR Green and slides were imaged on a Zeiss ApoTome2 on Axiolmager using a 10× objective (>100 cells/condition).

HEK 293T cells [2] = test: cell proliferation (MTT) assay; format: cell-based, human
Method: HEK 293T or HEK 293 PARP-1 KO cells were seeded in a 96 well plate at 1000-2000 cells per well. Following an overnight incubation, MTT reagent, 3-(4,5-dimethylthiazol-2-yl)-2,5-diphenyltetrazolium bromide, or a dosage curve of indicated inhibitor was added to each well in quadruplicate. Following a 3-hour incubation at 37° C., wells containing MTT reagent, were aspirated and lysed with 100 μl DMSO. These wells acting as a no growth control were collected, saved @ −20° C., and replaced with 100 μl water. The plate was placed back into the incubator for a total of 72 hours of inhibitor treatment prior to MTT reagent being added for a final time. Following a 3 hour incubation with the reagent, wells were aspirated, and 100 μl DMSO were added to each well, while the no growth control sample was added back to the plate. Absorbance was read on a SpectraMaxi3 plate reader (Molecular Devices). Percent growth was calculated for analysis. Statistical significance was assigned using individual t-tests between conditions for each inhibitor dosage.
(§1) Error bars represent SEM. […] Error bars represent SEM. […] Error bars represent SEM.

HEK 293T cells [3] = test: DNA synthesis assay (EdU incorporation); format: cell-based, human; details: 1 μM, 18 hours, then 10 μM EdU 1.5 hours
Method: HEK 293T cells were seeded onto poly-d-lysine treated glass coverslips. […] After incubation, cells were treated with 10 μM EdU (5-ethynyl-2′-deoxyuridine) for 1.5 hours and subsequently fixed with 4% Sucrose/4% Paraformaldehyde in PBS for 15 minutes at RT. Cells were washed 2× with 3% BSA in PBS and permeabilized with 0.3% Triton X-100 in PBS for 20 minutes at RT. After two additional 3% BSA in PBS washes, coverslips were incubated with 500 μl Click-iT reaction cocktail [1× Click-iT reaction buffer, 2 mM CuSO4, 5 μM TAMRA Azide, Reaction buffer additive] for 30 minutes at room temperature (RT) protected from the light. Cells were washed once more with 3% BSA in PBS and twice more with 1×PBS before being mounted using ProLong Gold antifade reagent with DAPI (Invitrogen). All immunofluorescence images were taken on a Zeiss ApoTome2 on Axiolmager and analyzed using Zeiss software. Mean intensity of the TAMRA signal was measured after imposing DAPI masks over the nucleus of each cell. All cells within a 20× image, was analyzed (˜3000 cells/condition).
as §1

PARP-1 [4] = target: T1, PARP-1 (Homo sapiens, UniProt P09874); test: PARP-1 auto-PARylation activity assay in cells; format: cell-based
Method: Cells were washed with PBS, and lysed in RIPA buffer (50 mM Tris-HCl [pH 8.0], 150 mM NaCl, 0.1% SDS, 1% Triton X-100, 1× cOmplete™ protease inhibitors (Roche), and 1 μM Veliparib). […] Following quantification, 4× Laemmli sample buffer with 5% β-mercaptoethanol was added to 25-50 μg of protein.
Membrane blots were blocked with 5% milk-PBST for 1 h at RT, followed by incubation with a rabbit pan-ADP-ribose binding reagent (Cell Signaling), a rabbit PARP-1 antibody (Bethyl Laboratories), or a mouse b-actin antibody (Santa Cruz Biotechnology) for 2 h at RT, followed by incubation with HRP-conjugated secondary antibodies. […] Blots were imaged for chemiluminescent signal on a ChemiDoc MP system (BioRad). Statistical significance was established through multiple unpaired t-tests with nonlinear regression fit analysis.
FIGS. 5A-5F. […] An unlabeled competitor was added and the decrease in fluorescence polarization was measured across time. […] Error bars represent SEM. […] Error bars represent SEM. […] Cells were subsequently lysed using RIPA buffer, run out on SDS-PAGE, and probed for ADPr (Cell Signaling) and PARP-1 (Bethyl Laboratories). FIG. 5F) Quantification of western blot images. ADPr values are normalized to PARP-1 within each replicate and plotted as percentage compared to DMSO. Error bars indicate SEM (n=3).

HEK 293T cells [5] = test: analysis of cell cycle (DAPI, flow cytometry)
Method: After the indicated treatments, cells were washed twice with 1× PBS, trypsinized off of the plate, and washed an additional 2 times with 1×PBS. Cells were then permeabilized using 70% cold ethanol while vortexing before incubating for 30 min at 4° C. Cells were then washed three times with 1×PBS and counted using a hemocytometer to create a final pellet of 1×10^6 cells in for each inhibitor condition. 500 μl of DAPI solution (1 μg/ml DAPI, 0.1% Triton X-100 in PBS) was added to each cell pellet and incubated on ice for 30 min before being analyzed by flow cytometry using a BD Canto II. All data was analyzed on FlowJo software, gating for 20,000 singlet events. Manual cell cycle gates were set onto the DMSO control data using Watson modeling as reference. These gates were applied to all treatment conditions to obtain quantitative analysis.
Error bars represent SEM. […] Caspase-Glo 3/7 reagent was added to each well and luminescence was read after 30 minutes. […] Error bars represent SEM. […] Cell cycle was analyzed by flow cytometry (20,000 singlet events) and cell cycle statistics were calculated in FlowJo software against DMSO Watson modeling (n=3). FIG. 3F) DNA synthesis was measured using EdU incorporation. […] EdU incorporation was labelled using TAMRA azide click-chemistry and imaged at 20×. Mean intensity of TAMRA signal within DAPI masks analyzed using Zen software (n>3900 cells over 2 replicates). Values are normalized to the average DMSO control within each replicate. Error bars represent SEM. Statistical significance calculated via one-way ANOVA with Tukey's multiple comparisons test (p<0.05).

[6] = tested on: Ser345 phosphorylation of Chk1 in HEK 293 cells; test: western blot analysis of phosphorylation of Chk1; details: HEK 293 cells, 18 hours
PARP-1 [7] = target: T1, PARP-1; test: in vitro fluorescence polarization DNA competition assay; details: 25 μM compound; PARP-1 40 nM; nicked dumbbell DNA probe 20 nM
Excerpt: The full-length WT PARP-1 protein used in these assays was purified as described previously (30).

PARP-1 [8] = target: T1, PARP-1; test: in vitro PARP-1 auto-PARylation assay (SRPK2 plate assay); format: biochemical; set-up: The full-length WT PARP-1 protein used in these assays; made in house; details: read-out: IC50 against PARP-1 catalytic activity (auto-PARylation)
Method: IC50 SRPK2 Plate Assays were performed as previously described (21). Log(inhibitor) versus response curves were fit using non-linear regression with variable slope. Mean IC50 values for each compound were derived from a minimum of three separate replicates.

T1 sequence (P09874 whole entry): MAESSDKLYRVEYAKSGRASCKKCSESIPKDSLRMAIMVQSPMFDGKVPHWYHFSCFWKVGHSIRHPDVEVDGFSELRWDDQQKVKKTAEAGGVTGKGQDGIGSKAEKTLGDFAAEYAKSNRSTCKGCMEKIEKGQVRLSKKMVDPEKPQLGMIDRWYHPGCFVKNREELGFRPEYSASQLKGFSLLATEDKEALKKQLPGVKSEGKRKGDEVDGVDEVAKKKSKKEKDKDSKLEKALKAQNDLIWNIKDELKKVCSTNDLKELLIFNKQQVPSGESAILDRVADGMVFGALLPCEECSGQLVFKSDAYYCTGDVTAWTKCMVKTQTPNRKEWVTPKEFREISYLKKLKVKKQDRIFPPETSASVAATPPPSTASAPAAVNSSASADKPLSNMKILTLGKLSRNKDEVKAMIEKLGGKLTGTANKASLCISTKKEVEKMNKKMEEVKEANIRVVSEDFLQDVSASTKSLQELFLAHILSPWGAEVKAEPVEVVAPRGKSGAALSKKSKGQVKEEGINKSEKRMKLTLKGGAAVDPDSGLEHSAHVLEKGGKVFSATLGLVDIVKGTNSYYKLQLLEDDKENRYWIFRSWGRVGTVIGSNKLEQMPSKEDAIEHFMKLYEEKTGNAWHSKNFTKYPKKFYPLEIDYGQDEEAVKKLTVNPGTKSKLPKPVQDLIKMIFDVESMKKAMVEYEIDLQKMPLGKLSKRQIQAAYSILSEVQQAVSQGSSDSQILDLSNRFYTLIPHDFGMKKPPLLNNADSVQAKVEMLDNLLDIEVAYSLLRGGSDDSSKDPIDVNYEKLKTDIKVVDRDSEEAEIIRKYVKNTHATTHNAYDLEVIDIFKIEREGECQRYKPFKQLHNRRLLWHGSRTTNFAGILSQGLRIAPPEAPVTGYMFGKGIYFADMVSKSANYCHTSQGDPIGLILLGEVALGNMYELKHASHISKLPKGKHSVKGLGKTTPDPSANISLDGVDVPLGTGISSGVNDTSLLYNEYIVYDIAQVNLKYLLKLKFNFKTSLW
Sequence of D770A PARP-1 (P09874 whole entry D770A): as the sequence (P09874 whole entry) above, with D770A counted along it

For “(S)-4-(difluoro(3-(6-methyl-3-(trifluoromethyl)-5,6,7,8-tetrahydro-[1,2,4]triazolo[4,3-a]pyrazine-7-carbonyl)phenyl)methyl)phthalazin-1(2H)-one [AZ0108]”, the “inhibition of D770A PARP-1 activity” value (D770A PARP-1) was “inhibited”, the “double-strand breaks (DSBs)” value (HEK 293T cells [1]) was “only weakly generated DSBs” and the EC50 (HEK 293T cells [2]; MTT, 72 h, read-out: EC50 cell growth) was 30 nM and 29.7 nM. For the same substance, the “right-shift of the EC50 value for AZ0108 on cell growth” value (HEK 293T cells [2]; dual-treated with olaparib) was 10 fold, the “block of EdU incorporation” value (HEK 293T cells [3]) was 65% and the EC50 (PARP-1 [4]; 30 min inhibitor, then PARG inhibitor PDD00017273, read-out: EC50 inhibiting PARP-1 PARylation in HEK 293 cells) was 42.5 nM. It also gave an IC50 (PARP-1 [4]; FIG. 5F, nonlinear regression, read-out: IC50 of dose curves, quantification of western blot (ADPr normalized to PARP-1)) of 42.5 nM, a G1 (HEK 293T cells [5]; DAPI intensity, 18 hours) of 9.31% and a G2 (HEK 293T cells [5]; DAPI intensity, 18 hours) of 9.65%. The S (HEK 293T cells [5]; DAPI intensity, 18 hours) was 77.4%, the “effect on cell cycle” value (HEK 293T cells [5]; FACS, DAPI fluorescence) was “arrested HEK 293 cells in S-phase” and the “Ser345 phosphorylation of Chk1” value [6] was “induced Ser345 phosphorylation of Chk1”. The “exchange of the PARP-1:labled DNA complex with an unlabeled DNA competitor” value (PARP-1 [7]) was “substantially reduced” and the IC50 (PARP-1 [8]) was 12 nM.
